Experimental data published in patent publication US20250206730A1 (AUTOTELIC BIO INC., priority 2022, published 2025).

Test system: TGF-β signaling
Assay: Assay for evaluating cellular inhibition of TGF-β signaling, 4T1 (SBE-luc2P) luciferase reporter
Type: cell-based
Conditions: Mus musculus, 4T1, 4T1 (SBE-luc2P) transient pool, 0.2% FBS, 2 h pre-treatment, TGF-β1 2 ng/mL 24 h; read-out: IC50 4T1 Cell
Experimental: [Example 2] Assay for Evaluating Cellular Inhibition of TGF-β Signaling
4T1 (SBE-luc2P) transient pool that have SBE-luc2P (hygro) expression plasmid or HEK293 (SBE reporter) stable cells (BPS bioscience) were seeded at 6×10^3 cells/well or 2.5×10^4 cells/well in 96-well plate, respectively. 4T1 (SBE-luc2P) transient pool were pre-treated with novel compound synthesized in Example 1 above in 0.2% FBS at approximately 60% confluence at 37° C. in 5% CO2. Also, HEK293 (SBE reporter) stable cells were pre-treated with each test compounds of formula in 0.5% FBS at approximately 80% confluence at 37° C. in 5% CO2. After 2 hours, cells were treated with TGF-β1 (2 ng/mL) for 24 h at 37° C. in 5% CO2. Cell lysates were prepared using Luciferase Assay (Promega) according to the manufacturer's instruction, and luminescence was measured by a plate reader, Biotek Synergy H1 (Vermont, USA).

Row | Compound | IC50 [nM]
1 | COC(=O)c1cccc(Nc2cc(Oc3sc(C(C)C)nc3-c3ccccc3)ccn2)n1 [A-216, Methyl 6-((4-((2-Isopropyl-4-phenylthiazol-5-yl)oxy)pyridin-2-yl)amino)picolinate] | > 100
2 | Nc1nc(-c2ccccc2)c(Oc2ccnc(Nc3cccnc3)c2)s1 [A-6, 4-Phenyl-5-((2-(pyridin-3-ylamino)pyridin-4-yl)oxy)thiazol-2-amine] | > 100
3 | Cc1nc(-c2ccccc2)c(Oc2ccnc(NCc3ccccc3)c2)s1 [A-94, N-Benzyl-4-((2-methyl-4-phenylthiazol-5-yl)oxy)pyridin-2-amine] | > 100
4 | Cc1nc(-c2ccccc2)c(Oc2ccnc(Nc3ccc(Cl)nc3)c2)s1 [A-84, N-(6-Chloropyridin-3-yl)-4-((2-methyl-4-phenylthiazol-5-yl)oxy)pyridin-2-amine] | > 100
5 | Cc1nc(-c2ccccc2)c(Oc2cc(Nc3cccc(S(N)(=O)=O)c3)ncn2)s1 [A-237, 3-((6-((2-Methyl-4-phenylthiazol-5-yl)oxy)pyrimidin-4-yl)amino)benzenesulfonamide] | > 100
6 | Cc1nc(-c2ccccc2)c(Oc2ccnc(Nc3cnn(S(C)(=O)=O)c3)c2)s1 [A-97, 4-((2-Methyl-4-phenylthiazol-5-yl)oxy)-N-(1-(methylsulfonyl)-1H-pyrazol-4-yl)pyridin-2-amine] | > 100
7 | Cc1nc(-c2ccccc2)c(Oc2ccnc(Nc3ccnc(F)c3)c2)s1 [A-87, N-(2-Fluoropyridin-4-yl)-4-((2-methyl-4-phenylthiazol-5-yl)oxy)pyridin-2-amine] | > 100
8 | Nc1nc(-c2ccccc2)c(Oc2ccnc(Nc3cccc(S(=O)(=O)C(F)(F)F)c3)c2)s1 [A-17, 4-Phenyl-5-((2-((3-((trifluoromethyl)sulfonyl)phenyl)amino)pyridin-4-yl)oxy)thiazol-2-amine] | > 100
9 | Nc1nc(-c2ccccc2)c(Oc2ccnc(Nc3ccnc(F)c3)c2)s1 [A-30, 5-((2-((2-Fluoropyridin-4-yl)amino)pyridin-4-yl)oxy)-4-phenylthiazol-2-amine] | > 100
10 | Nc1nc(-c2ccccc2)c(Oc2ccnc(Nc3ccnc(Cl)c3)c2)s1 [A-27, 5-((2-((2-Chloropyridin-4-yl)amino)pyridin-4-yl)oxy)-4-phenylthiazol-2-amine] | > 100
11 | Nc1nc(-c2ccccc2)c(Oc2ccnc(Nc3ccc(Cl)nc3)c2)s1 [A-35, 5-((2-((6-Chloropyridin-3-yl)amino)pyridin-4-yl)oxy)-4-phenylthiazol-2-amine] | > 100
12 | Nc1nc(-c2ccccc2)c(Oc2ccnc(Nc3ccc(F)nc3)c2)s1 [A-7, 5-((2-((6-Fluoropyridin-3-yl)amino)pyridin-4-yl)oxy)-4-phenylthiazol-2-amine] | > 100
13 | Nc1nc(-c2ccccc2)c(Oc2ccnc(Nc3cn[nH]c3)c2)s1 [A-38, 5-((2-((1H-Pyrazol-4-yl)amino)pyridin-4-yl)oxy)-4-phenylthiazol-2-amine] | > 100
14 | NC(=O)c1cncc(Nc2cc(Oc3sc(N)nc3-c3ccccc3)ccn2)c1 [A-32, 5-((4-((2-Amino-4-phenylthiazol-5-yl)oxy)pyridin-2-yl)amino)nicotinamide] | > 100
15 | Cn1cc(Nc2cc(Oc3sc(N)nc3-c3ccccc3)ccn2)cn1 [A-37, 5-((2-((1-Methyl-1H-pyrazol-4-yl)amino)pyridin-4-yl)oxy)-4-phenylthiazol-2-amine] | > 100
16 | Nc1nc(-c2ccccc2)c(Oc2ccnc(Nc3cccc(S(=O)(=O)O)c3)c2)s1 [A-18, 3-((4-((2-Amino-4-phenylthiazol-5-yl)oxy)pyridin-2-yl)amino)benzenesulfonic acid] | > 100
17 | Nc1nc(-c2ccccc2)c(Oc2ccnc(Nc3ccncc3)c2)s1 [A-8, 4-Phenyl-5-((2-(pyridin-4-ylamino)pyridin-4-yl)oxy)thiazol-2-amine] | > 100

Other lines, results leading:

Row | IC50 [nM] | Compound
18 | > 100 | COc1ccc(Nc2cc(Oc3sc(N)nc3-c3ccccc3)ccn2)cn1 [A-31, 5-((2-((6-Methoxypyridin-3-yl)amino)pyridin-4-yl)oxy)-4-phenylthiazol-2-amine]
19 | < 100 | Cc1cccc(-c2nc(C)sc2Oc2ccnc(Nc3cccc(CCC#N)c3)c2)n1 [A-306, 3-(3-((4-((2-Methyl-4-(6-methylpyridin-2-yl)thiazol-5-yl)oxy)pyridin-2-yl)amino)phenyl)propanenitrile]
20 | > 100 | Nc1nc(-c2ccccc2)c(Oc2ccnc(NCc3cccnc3)c2)s1 [A-28, 4-Phenyl-5-((2-((pyridin-3-ylmethyl)amino)pyridin-4-yl)oxy)thiazol-2-amine]
21 | > 100 | NC(=O)c1ccc(Nc2cc(Oc3sc(N)nc3-c3ccccc3)ccn2)cn1 [A-11, 5-((4-((2-Amino-4-phenylthiazol-5-yl)oxy)pyridin-2-yl)amino)picolinamide]
22 | > 100 | Cc1nc(-c2ccccc2)c(Oc2ccnc(Nc3cccnc3)c2)s1 [A-82, 4-((2-Methyl-4-phenylthiazol-5-yl)oxy)-N-(pyridin-3-yl)pyridin-2-amine]
23 | > 100 | Cc1nc(-c2ccccc2)c(Oc2ccnc(Nc3ccnc(C(N)=O)c3)c2)s1 [A-102, 4-((4-((2-Methyl-4-phenylthiazol-5-yl)oxy)pyridin-2-yl)amino)picolinamide]
24 | < 100 | Cc1nc(-c2ccccc2)c(Oc2ccnc(Nc3cccc(S(=O)(=O)N(C)C)c3)c2)s1 [A-74, N,N-Dimethyl-3-((4-((2-methyl-4-phenylthiazol-5-yl)oxy)pyridin-2-yl)amino)benzenesulfonamide]
25 | > 100 | Cc1nc(-c2ccccc2)c(Oc2ccnc(Nc3cnn(S(=O)(=O)C4CC4)c3)c2)s1 [A-98, N-(1-(Cyclopropylsulfonyl)-1H-pyrazol-4-yl)-4-((2-methyl-4-phenylthiazol-5-yl)oxy)pyridin-2-amine]
26 | < 100 | Cc1nc(-c2ccccc2)c(Oc2ccnc(Nc3ccc(C(N)=O)cn3)c2)s1 [A-90, 6-((4-((2-Methyl-4-phenylthiazol-5-yl)oxy)pyridin-2-yl)amino)nicotinamide]
27 | < 100 | NC(=O)c1ccnc(Nc2cc(Oc3sc(N)nc3-c3ccccc3)ccn2)c1 [A-22, 2-((4-((2-Amino-4-phenylthiazol-5-yl)oxy)pyridin-2-yl)amino)isonicotinamide]
28 | < 100 | CCc1nc(-c2ccccc2)c(Oc2ccnc(Nc3cccc(NS(=O)(=O)C(F)(F)F)c3)c2)s1 [A-311, N-(3-((4-((2-Ethyl-4-phenylthiazol-5-yl)oxy)pyridin-2-yl)amino)phenyl)-1,1,1-trifluoromethanesulfonamide]
29 | < 100 | Cc1nc(-c2ccccc2)c(Oc2ccnc(Nc3cnn(C)c3)c2)s1 [A-99, N-(1-Methyl-1H-pyrazol-4-yl)-4-((2-methyl-4-phenylthiazol-5-yl)oxy)pyridin-2-amine]
30 | < 100 | COc1cc(Nc2cc(Oc3sc(C)nc3-c3ccccc3)ccn2)ccc1N1CCN(C)CC1 [A-106, N-(3-Methoxy-4-(4-methylpiperazin-1-yl)phenyl)-4-((2-methyl-4-phenylthiazol-5-yl)oxy)pyridin-2-amine]
31 | < 100 | Nc1nc(-c2ccccc2)c(Oc2ccnc(Nc3cccc(S(=O)(=O)NC4CC4)c3)c2)s1 [A-20, 3-((4-((2-Amino-4-phenylthiazol-5-yl)oxy)pyridin-2-yl)amino)-N-cyclopropylbenzenesulfonamide]
32 | < 100 | Cc1nc(-c2ccccc2)c(Oc2ccnc(Nc3ccnc(Cl)c3)c2)s1 [A-89, N-(2-Chloropyridin-4-yl)-4-((2-methyl-4-phenylthiazol-5-yl)oxy)pyridin-2-amine]
33 | < 100 | COC(=O)C(C)(C)c1cccc(Nc2cc(Oc3sc(C)nc3-c3cccc(C)n3)ccn2)c1 [A-308, Methyl 2-methyl-2-(3-((4-((2-methyl-4-(6-methylpyridin-2-yl)thiazol-5-yl)oxy)pyridin-2-yl)amino)phenyl)propanoate]
34 | < 100 | O=S(=O)(Nc1cccc(Nc2cc(Oc3sc(C4CC4)nc3-c3ccccc3)ccn2)c1)C(F)(F)F [A-123, N-(3-((4-((2-Cyclopropyl-4-phenylthiazol-5-yl)oxy)pyridin-2-yl)amino)phenyl)-1,1,1-trifluoromethanesulfonamide]
35 | < 100 | CCS(=O)(=O)c1cccc(Nc2cc(Oc3sc(C)nc3-c3ccccc3)ccn2)c1 [A-77, N-(3-(Ethylsulfonyl)phenyl)-4-((2-methyl-4-phenylthiazol-5-yl)oxy)pyridin-2-amine]
36 | < 100 | Cc1nc(-c2ccccc2)c(Oc2ccnc(Nc3cccc(C(=O)N(C)C)c3)c2)s1 [A-67, N,N-Dimethyl-3-((4-((2-methyl-4-phenylthiazol-5-yl)oxy)pyridin-2-yl)amino)benzamide]
37 | < 100 | COc1cc(Nc2cc(Oc3sc(N)nc3-c3ccccc3)ccn2)ccn1 [A-24, 5-((2-((2-Methoxypyridin-4-yl)amino)pyridin-4-yl)oxy)-4-phenylthiazol-2-amine]
38 | < 100 | Cc1nc(-c2ccccc2)c(Oc2ccnc(Nc3cccc(C(N)=O)n3)c2)s1 [A-101, 6-((4-((2-Methyl-4-phenylthiazol-5-yl)oxy)pyridin-2-yl)amino)picolinamide]
39 | < 100 | CS(=O)(=O)Cc1cccc(Nc2cc(Oc3sc(N)nc3-c3ccccc3)ccn2)c1 [A-19, 5-((2-((3-((Methylsulfonyl)methyl)phenyl)amino)pyridin-4-yl)oxy)-4-phenylthiazol-2-amine]
40 | < 100 | COCCN1CCN(c2ccc(Nc3cc(Oc4sc(C)nc4-c4ccccc4)ccn3)cc2)CC1 [A-108, N-(4-(4-(2-Methoxyethyl)piperazin-1-yl)phenyl)-4-((2-methyl-4-phenylthiazol-5-yl)oxy)pyridin-2-amine]
